15 compounds from patent US10821115B2, “Compounds that inhibit Mcl-1 protein” (priority 2017, dated 2020) can be followed below.

In experiment [1] the test system is human multiple myeloma cell line, OPM-2. Description: Cell viability assay (OPM-2 10 FBS), CellTiter-Glo. It counts as cell-based. The procedure, abridged:
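Steps: plate cells at 3000/well in 10% FBS growth medium, add serially diluted compound, incubate 16 h at 37 °C with 5% CO2, add detection reagent and read luminescence after 25 min. A 4-parameter logistic model gives IC50.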
In general terms: Cellular ATP, detected with luciferase, serves as a proxy for viable cell number.

For experiment [2], the target named is recombinant human Mcl-1 (residues 171-327) / Bim interaction (Homo sapiens (Human), UniProt Q07820). Description: biochemical. It counts as binding. Conditions: read-out: Mcl-1 HTRF IC50. A general note: TR-FRET usually uses a lanthanide donor and a delayed reading to cut background.
[3] abbreviates: Homo sapiens, OPM-2, 16 h, read-out: OPM-2 10% FBS IC50 IP, OPM-2 cells, 10% FBS, 16 h incubation.
The mark [4] stands for this setting: 0.1 nM Mcl-1(171-327), 0.05 nM biotin-Bim (51-76).
[5] abbreviates: read-out: OPM-2 10% FBS IC50 IP, OPM-2 cells, 10% FBS, 16 h, CellTiter-Glo.
[6] abbreviates: TR-FRET, Mcl-1(171-327) / biotin-Bim (51-76).
The mark [7] stands for this setting: Homo sapiens, OPM-2, 16 h, read-out: OPM-2 10% FBS IC50 IP, OPM-2 cells, 10% FBS, 16 h, CellTiter-Glo.

Read-outs that look alike come from different tables or passages of the source.

What is called IC50 is the point on the concentration scale where inhibition reaches its midpoint.

Chain of recombinant human Mcl-1 (residues 171-327) / Bim interaction (Q07820 171-327): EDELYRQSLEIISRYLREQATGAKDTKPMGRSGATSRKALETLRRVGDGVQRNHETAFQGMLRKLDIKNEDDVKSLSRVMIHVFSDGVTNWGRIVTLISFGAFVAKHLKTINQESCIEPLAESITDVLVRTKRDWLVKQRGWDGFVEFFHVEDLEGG

Take `CO[C@]1(CN2CC(C)(N(C)C)C2)/C=C/C[C@H](C)[C@@H](C)S(=O)(=O)NC(=O)c2ccc3c(c2)N(C[C@@H]2CC[C@H]21)C[C@@]1(CCCc2cc(Cl)ccc21)CO3` [Example 60, (1S,3′R,6′R,7′R,8′E,11′S,12′R)-6-chloro-7′-((3-(dimethylamino)-3-methyl-1-azetidinyl)methyl)-7′-methoxy-11′,12′-dimethyl-3,4-dihydro-2H,15′H-spiro[naphthalene-1,22′-[20]oxa[13]thia[1,14]diazatetracyclo [14.7.2.0~3,6~.0~19,24~]pentacosa[8,16,18,24]tetraen]-15′-one 13′,13′-dioxide]: the results for the IC50 in experiment [1] (setting [3]) and in experiment [2] (setting [4]) were 129 nM and 0.287 nM, respectively.

Turning to `CO[C@@]1(CC(=O)N2CCN(C)C[C@H]2C)/C=C/C[C@H](C)[C@@H](C)S(=O)(=O)NC(=O)c2ccc3c(c2)N(C[C@@H]2CC[C@H]21)C[C@@]1(CCCc2cc(Cl)ccc21)CO3` (single isomer, unassigned) [Example 100480], the values for the IC50 in experiment [1] (setting [5]) and in experiment [2] (setting [6]) were 221 nM and 0.176 nM, respectively.

On to `COCC[C@@H]1[C@@H](C)C/C=C/[C@@](CN2CCN(C)CC2)(OC)[C@@H]2CC[C@H]2CN2C[C@@]3(CCCc4cc(Cl)ccc43)COc3ccc(cc32)C(=O)NS1(=O)=O` [Example 178, (1S,3′R,6′R,7′R,8′E,11′S,12′R)-6-chloro-7′-methoxy-12′-(2-methoxyethyl)-11′-methyl-7′-((4-methyl-1-piperazinyl)methyl)-3,4-dihydro-2H,15′H-spiro[naphthalene-1,22′-[20]oxa[13]thia[1,14]diazatetracyclo [14.7.2.0~3,6~.0~19,24~]pentacosa[8,16,18,24]tetraen]-15′-one 13′,13′-dioxide], for which the concentration for half-maximal inhibition (IC50) was 71 nM in experiment [1] (setting [3]) and 0.177 nM in experiment [2] (setting [4]).

As for `CCCO[C@]1(CN2CCN3CCOC[C@@H]3C2)/C=C/C[C@H](C)[C@@H](C)S(=O)(=O)NC(=O)c2ccc3c(c2)N(C[C@@H]2CC[C@H]21)C[C@@]1(CCCc2cc(Cl)ccc21)CO3` [Example 351, (1S,3′R,6′R,7′R,8′E,11′S,12′R)-6-chloro-7′-((9aS)-hexahydropyrazino[2,1-c][1,4]oxazin-8(1H)-ylmethyl)-11′,12′-dimethyl-7′-propoxy-3,4-dihydro-2H,15′H-spiro[naphthalene-1,22′-[20]oxa[13]thia[1,14]diazatetracyclo [14.7.2.0~3,6~.0~19,24~]pentacosa[8,16,18,24]tetraen]-15′-one 13′,13′-dioxide], the 50% inhibitory concentration (IC50) in experiment [1] (setting [3]) worked out at 196 nM; in experiment [2] (setting [4]) it was 0.121 nM.

Regarding `CO[C@@]1(CC(C)=O)/C=C/C[C@H](C)[C@@H](C)S(=O)(=O)NC(=O)c2ccc3c(c2)N(C[C@@H]2CC[C@H]21)C[C@@]1(CCCc2cc(Cl)ccc21)CO3` [Example 100446, (1S,3′R,6′R,7′S,8′E,11′S,12′R)-6-chloro-7′-methoxy-11′,12′-dimethyl-7′-(2-oxopropyl)-3,4-dihydro-2H,15′H-spiro[naphthalene-1,22′-[20]oxa[13]thia[1,14]diazatetracyclo [14.7.2.0~3,6~.0~19,24~]pentacosa[8,16,18,24]tetraen]-15′-one 13′,13′-dioxide], the figures for the half-inhibitory concentration (IC50) in experiment [1] (setting [7]) and in experiment [2] (setting [6]) were 345 nM and 0.126 nM, respectively.

As to `CCO[C@]1(CN2CCN3CCS(=O)(=O)C[C@@H]3C2)/C=C/C[C@H](C)[C@@H](C)S(=O)(=O)NC(=O)c2ccc3c(c2)N(C[C@@H]2CC[C@H]21)C[C@@]1(CCCc2cc(Cl)ccc21)CO3` [Example 122], the 50% inhibitory concentration (IC50) in experiment [1] (read-out: OPM-2 10% FBS IC50 IP, OPM-2 cells, 10% FBS, 16 h incubation) turned out to be 138 nM; in experiment [2] (setting [4]), 0.087 nM.

As for `C[C@@H]1[C@@H](C)CCC[C@@](O)([C@@H]2OCCN(C)C2=O)[C@@H]2CC[C@H]2CN2C[C@@]3(CCCc4cc(Cl)ccc43)COc3ccc(cc32)C(=O)NS1(=O)=O` [Example 100205, (1S,3′R,6′R,7′S,11′S,12′R)-6-chloro-7′-hydroxy-11′,12′-dimethyl-7′-((2S)-4-methyl-3-oxo-2-morpholinyl)-3,4-dihydro-2H,15′H-spiro[naphthalene-1,22′-[20]oxa[13]thia[1,14]diazatetracyclo [14.7.2.0~3,6~.0~19,24~]pentacosa[16,18,24]trien]-15′-one 13′,13′-dioxide], the half-maximal inhibitory concentration (IC50) in experiment [1] (setting [7]) stood at 68 nM; in experiment [2] (setting [6]) it was 0.206 nM.

For `CO[C@]1(CN2CCC(N3CCOCC3)CC2)/C=C/C[C@H](C)[C@@H](C)S(=O)(=O)NC(=O)c2ccc3c(c2)N(C[C@@H]2CC[C@H]21)C[C@@]1(CCCc2cc(Cl)ccc21)CO3` [Example 85, (1S,3′R,6′R,7′R,8′E,11′S,12′R)-6-chloro-7′-methoxy-11′,12′-dimethyl-7′-((4-(4-morpholinyl)-1-piperidinyl)methyl)-3,4-dihydro-2H,15′H-spiro[naphthalene-1,22′-[20]oxa[13]thia[1,14]diazatetracyclo [14.7.2.0~3,6~.0~19,24~]pentacosa[8,16,18,24]tetraen]-15′-one 13′,13′-dioxide], the half-maximal inhibitory concentration (IC50) turned out to be 274 nM in experiment [1] (setting [3]) and 0.491 nM in experiment [2] (setting [4]).

Regarding `CO[C@]1(CN2CCN3CCOC[C@@H]3C2)/C=C/[C@H](C)[C@H](C)CS(=O)(=O)NC(=O)c2ccc3c(c2)N(C[C@@H]2CC[C@H]21)C[C@@]1(CCCc2cc(Cl)ccc21)CO3` [Example 157, (1S,3′R,6′R,7′R,8′E,10′S,11′S)-6-chloro-7′-((9aS)-hexahydropyrazino[2,1-c][1,4]oxazin-8(1H)-ylmethyl)-7′-methoxy-10′,11′-dimethyl-3,4-dihydro-2H,15′H-spiro[naphthalene-1,22′-[20]oxa[13]thia[1,14]diazatetracyclo [14.7.2.0~3,6~.0~19,24~]pentacosa[8,16,18,24]tetraen]-15′-one 13′,13′-dioxide], the figures for the IC50 in experiment [1] (setting [3]) and in experiment [2] (setting [4]) were 121 nM and 0.126 nM, respectively.

With `CO[C@@]1(CCN2CCCCC2)/C=C/C[C@H](C)[C@@H](C)S(=O)(=O)NC(=O)c2ccc3c(c2)N(C[C@@H]2CC[C@H]21)C[C@@]1(CCCc2cc(Cl)ccc21)CO3` [Example 100428, (1S,3′R,6′R,7′S,8′E,11′S,12′R)-6-chloro-7′-methoxy-11′,12′-dimethyl-7′-(2-(1-piperidinyl)ethyl)-3,4-dihydro-2H,15′H-spiro[naphthalene-1,22′-[20]oxa[13]thia[1,14]diazatetracyclo [14.7.2.0~3,6~.0~19,24~]pentacosa[8,16,18,24]tetraen]-15′-one 13′,13′-dioxide], the half-inhibitory concentration (IC50) amounted to 218 nM in experiment [1] (setting [7]) and 0.21 nM in experiment [2] (setting [6]).

Take `COCC(C)(C)N1CCN(C[C@@]2(OC)/C=C/C[C@H](C)[C@@H](C)S(=O)(=O)NC(=O)c3ccc4c(c3)N(C[C@@H]3CC[C@H]32)C[C@@]2(CCCc3cc(Cl)ccc32)CO4)CC1` [Example 333, (1S,3′R,6′R,7′R,8′E,11′S,12′R)-6-chloro-7′-methoxy-7′-((4-(2-methoxy-1,1-dimethylethyl)-1-piperazinyl)methyl)-11′,12′-dimethyl-3,4-dihydro-2H,15′H-spiro[naphthalene-1,22′-[20]oxa[13]thia[1,14]diazatetracyclo [14.7.2.0~3,6~.0~19,24~]pentacosa[8,16,18,24]tetraen]-15′-one 13′,13′-dioxide]: the values for the IC50 in experiment [1] (setting [3]) and in experiment [2] (setting [4]) were 82 nM and 0.088 nM, respectively.

On to `C[C@@H]1[C@@H](C)CCC[C@](O)(c2ncccn2)[C@@H]2CC[C@H]2CN2C[C@@]3(CCCc4cc(Cl)ccc43)COc3ccc(cc32)C(=O)NS1(=O)=O` [Example 100279, (1S,3′R,6′R,7′R,11′S,12′R)-6-chloro-7′-hydroxy-11′,12′-dimethyl-7′-(2-pyrimidinyl)-3,4-dihydro-2H,15′H-spiro[naphthalene-1,22′-[20]oxa[13]thia[1,14]diazatetracyclo [14.7.2.0~3,6~.0~19,24~]pentacosa[16,18,24]trien]-15′-one 13′,13′-dioxide], for which the results for the half-inhibitory concentration (IC50) in experiment [1] (setting [5]) and in experiment [2] were 3250 nM and 0.777 nM, respectively.

Consider `C[C@@H]1[C@@H](C)CCC[C@@]2(OCCS2)[C@@H]2CC[C@H]2CN2C[C@@]3(CCCc4cc(Cl)ccc43)COc3ccc(cc32)C(=O)NS1(=O)=O` [Example 100115, (1S,3′R,6′R,7′S,11′S,12′R)-6-chloro-11′,12′-dimethyl-3,4-dihydro-2H,15′H-dispiro[naphthalene-1,22′-[20]oxa[13]thia[1,14]diazatetracyclo [14.7.2.0~3,6~.0~19,24~]pentacosa[16,18,24]triene-7′,2″-[1,3]oxathiolan]-15′-one 13′,13′-dioxide], for which the concentration for half-maximal inhibition (IC50) in experiment [1] (setting [7]) came out at 2840 nM; in experiment [2] (setting [6]), 4.49 nM.

For `CCO[C@]1(CN2CCN(CCOC)CC2)/C=C/C[C@H](C)[C@@H](C)S(=O)(=O)NC(=O)c2ccc3c(c2)N(C[C@@H]2CC[C@H]21)C[C@@]1(CCCc2cc(Cl)ccc21)CO3` [Example 123, (1S,3′R,6′R,7′R,8′E,11′S,12′R)-6-chloro-7′-ethoxy-7′-((4-(2-methoxyethyl)-1-piperazinyl)methyl)-11′,12′-dimethyl-3,4-dihydro-2H,15′H-spiro[naphthalene-1,22′-[20]oxa[13]thia[1,14]diazatetracyclo [14.7.2.0~3,6~.0~19,24~]pentacosa[8,16,18,24]tetraen]-15′-one 13′,13′-dioxide], the IC50 in experiment [1] (setting [3]) stood at 228 nM; in experiment [2] (setting [4]) it was 0.205 nM.

As for `C[C@@H]1[C@@H](C)CCC[C@](O)(CC(=O)N2CCOCC2)[C@@H]2CC[C@H]2CN2C[C@@]3(CCCc4cc(Cl)ccc43)COc3ccc(cc32)C(=O)NS1(=O)=O` (single isomer, unassigned) [Example 100087], the half-maximal inhibitory concentration (IC50) in experiment [1] (setting [7]) worked out at 187 nM; in experiment [2] (setting [6]), 0.864 nM.
